Test results reported in patent publication US8470384B2, “Oxalamide derivative as umami flavouring agent” (Givaudan S.A., priority 2010, dated 2013).

Columns and labels:
[1] = system: professional panel composed of 2 women and 3 men; test: Tasting of 0.3% NaCl solutions by a professional panel (Example 2); type: in vivo, human
Procedure: (§1) Two solutions were prepared:
A—a solution of 0.3% NaCl and 0.05% MSG
B—a solution of 0.3% NaCl and 3 ppm of N1-geranyl-N2-(2-(pyridin-2-yl)ethyl)oxalamide.
The samples were tasted by a professional panel composed of 2 women and 3 men aged between 30 and 60. The panel agreed that both solutions tasted umami.

[2] = system: professional panel composed of 2 women and 3 men; test: Tasting of NaCl/MSG/ribonucleotide solutions with reduced MSG by a professional panel (Example 3); type: in vivo, human; details: solution B (0.5% NaCl, 0.05% MSG, 0.010% ribonucleotide mixture, 1.5 ppm compound) vs solution A (0.5% NaCl, 0.15% MSG, 0.025% ribonucleotide mixture)
Procedure: as §1
A—a solution of 0.5% NaCl, 0.15% MSG and 0.025% Ribonucleotide mixture
B—a solution of 0.5% NaCl, 0.05% MSG, 0.010% Ribonucleotide mixture and 1.5 ppm of N1-geranyl-N2-(2-(pyridin-2-yl)ethyl)oxalamide.
The samples were tasted by a professional panel composed of 2 women and 3 men aged between 30 and 60.

[3] = General finding on umami flavour quality; details: very low dosages; in contrast to many other non-MSG umami flavourants
[4] = solution B (0.3% NaCl, 3 ppm compound) vs solution A (0.3% NaCl, 0.05% MSG)

Compound: N[C@@H](CCC(=O)O)C(=O)[O-].[Na+] [MSG, monosodium glutamate, reference compound]
- umami taste ([1]; solution A: 0.3% NaCl and 0.05% MSG): tasted umami

Compound: CC(C)=CCC/C(C)=C/CNC(=O)C(=O)NCCc1ccccn1 [N1-geranyl-N2-(2-(pyridin-2-yl)ethyl)oxalamide]
- umami strength compared with solution A [2]: equal umami strength
- further taste attributes compared with solution A [1, 4]: more succulence and sweetness and had more lingering savoury notes
- umami strength compared with solution A [1, 4]: slightly stronger umami
- umami taste ([1]; solution B: 0.3% NaCl and 3 ppm of compound): tasted umami

Compound: CC(C)=CCC/C(C)=C/CNC(=O)C(=O)NCCc1ccccn1 [the Umami Compound]
- umami flavour and its quality [3]: clean, non-artificial taste
